According to patent US7132012B2, “Phthalocyanine compound, ink, ink jet recording method and image forming method” (Fuji Photo Film Co., Ltd., priority 2004, dated 2006):

Test: Color toner image: light fastness property (xenon light)
Assay type: physicochemical
Settings: xenon light 85,000 lux, 5 days
Protocol: As for each of the phthalocyanine compounds of the invention (compounds 101, 102, 103 and 107), 3 parts by weight of the compound and 100 parts by weight of a resin for toner [styrene-acrylic acid ester copolymer; trade name HIMER TB-1000F (manufactured by Sanyo Chemical Industries, Ltd.)] were mixed and ground in a ball mill. Then, the mixture was heated to 150° C. to be molten and mixed. After cooling, the mixture was coarsely crushed using a hammer mill, and then, finely pulverized by a pulverizer of an air jet system. The resulting particles were further classified, and 1 to 20 micro was selected, resulting in a toner. To 10 parts of the toner, 900 parts of carrier iron powder (trade name EFV250/400; manufactured by Nippon Iron Powder) was uniformly mixed, resulting in a developer. Similarly, each sample of the comparative coloring agents shown in Table-7 were prepared in the same manner, except that the dye was used in an amount of 3 parts by weight, and the pigment was used in an amount of 6 parts by weight. By the use of these developers, copying was carried out by means of a dry ordinary paper electrophotographic copier [trade name NP-5000; manufactured by CANON, Corp.].
Reflected images (images on paper) and transmitted images (OHP images) were formed on paper and OHP sheets, respectively, with a developer using a color toner containing the compounds of the invention in accordance with the foregoing image forming method, and the evaluation tests were conducted in the following manner. Incidentally, the amount of the toner deposited was evaluated in the range of 0.7±0.05 (mg/cm^2).
The light fastness property was evaluated in the following manner. The image density Ci immediately after recording was measured, and thereafter, the image was irradiated with xenon light (85,000 lux) by means of a weather meter (Atlas C. 165), for 5 days. Then, the image density Cf was measured again, and the coloring matter residual ratio ([…]) was determined from the difference in image density between before and after xenon light irradiation. The image density was measured by means of a reflection densitometer (X-Rite 310TR). In Table-7, the case where the coloring matter residual ratio was 90% or more is indicated with ∘; less than 90 to 80%, Δ; and less than 80%, x.

Row | Compound | Light fastness property
1 | C.I. Solvent Blue 38 | ∘ (the case where the coloring matter residual ratio was 90% or more is indicated with ∘)
2 | C.I. Solvent Blue 70 | ∘ (the case where the coloring matter residual ratio was 90% or more is indicated with ∘)
3 | Cc1ccc(Nc2ccc(Nc3ccc(C)cc3)c3c2C(=O)c2c(Nc4ccc(C)cc4)ccc(Nc4ccc(C)cc4)c2C3=O)cc1 [Comparative dye 6] | Δ (less than 90 to 80%, Δ)
4 | CNc1ccc(O)c2c1C(=O)c1c(O)ccc(NC)c1C2=O [Comparative dye 5] | Δ (less than 90 to 80%, Δ)
